The source of these data is PMC4535329 (Bioorganic & medicinal chemistry letters, 2015).

In brackets after ≈: the same amount, converted by molar mass.

Data set [1] deals with Na channel. The data set can be described thus: Cardiovascular safety pharmacology: Na channel. The following applies: read-out: Na channel IC50. Format: cell-based.
Data set [2] in a line: Solubility. The class given is physicochemical.
Data set [3] has as its target mGlu8 (Homo sapiens, UniProt O00222). Briefly: mGlu selectivity. The class given is cell-based.
Data set [4] deals with mGlu1 (Homo sapiens, UniProt Q13255). The data set can be described thus: mGlu selectivity. The class given is cell-based.
Data set [5] deals with Ca channel. Briefly: Cardiovascular safety pharmacology: Ca channel. The following applies: read-out: Ca channel IC50. Format: cell-based.
Data set [6] addresses mGlu7 (Homo sapiens, UniProt Q14831). The data set can be described thus: mGlu selectivity. The class given is cell-based.
Data set [7] addresses mGlu4 (Homo sapiens, UniProt Q14833). The data set can be described thus: mGlu selectivity. The class given is cell-based.
Data set [8] addresses mGlu2 (Homo sapiens, UniProt Q14416). The data set can be described thus: mGlu selectivity. Format: cell-based.
For data set [9], the target named is mGlu3 (Homo sapiens, UniProt Q14832). Briefly: mGlu selectivity: mGlu3 antagonist activity. The class given is cell-based.
Sequence of mGlu3 (Q14832 23-879): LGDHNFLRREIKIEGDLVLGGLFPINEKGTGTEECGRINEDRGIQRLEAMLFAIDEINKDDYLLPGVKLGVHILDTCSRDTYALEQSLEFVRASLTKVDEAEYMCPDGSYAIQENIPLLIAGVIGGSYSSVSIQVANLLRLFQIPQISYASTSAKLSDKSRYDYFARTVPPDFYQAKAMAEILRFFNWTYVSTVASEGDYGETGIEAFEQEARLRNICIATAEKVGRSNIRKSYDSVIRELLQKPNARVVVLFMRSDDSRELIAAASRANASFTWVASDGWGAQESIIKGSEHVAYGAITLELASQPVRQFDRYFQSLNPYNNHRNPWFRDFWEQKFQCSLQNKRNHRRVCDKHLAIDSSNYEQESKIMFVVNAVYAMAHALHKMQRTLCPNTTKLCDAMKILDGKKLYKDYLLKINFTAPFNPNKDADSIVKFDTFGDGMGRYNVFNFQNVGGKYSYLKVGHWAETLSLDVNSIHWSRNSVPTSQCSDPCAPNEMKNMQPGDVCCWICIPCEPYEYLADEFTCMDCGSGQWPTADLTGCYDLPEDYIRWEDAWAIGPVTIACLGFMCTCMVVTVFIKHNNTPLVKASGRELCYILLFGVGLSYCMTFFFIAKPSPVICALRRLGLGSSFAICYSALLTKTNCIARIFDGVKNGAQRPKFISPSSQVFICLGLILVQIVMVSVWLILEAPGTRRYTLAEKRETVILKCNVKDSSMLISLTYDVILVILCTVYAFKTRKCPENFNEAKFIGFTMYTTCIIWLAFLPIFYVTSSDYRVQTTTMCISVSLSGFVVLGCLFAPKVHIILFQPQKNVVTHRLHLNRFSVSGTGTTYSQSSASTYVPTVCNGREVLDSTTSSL
The test system of data set [10] is amphetamine-induced hyperlocomotion (AHL). Briefly: Reversal of amphetamine-induced hyperlocomotion. The class given is in vivo, male, Sprague Dawley rats.
In data set [11] the target is mGlu6 (Homo sapiens, UniProt O15303). The data set can be described thus: mGlu selectivity. Format: cell-based.
The target of data set [12] is human mGlu5 (Homo sapiens, UniProt P41594). The data set can be described thus: Calcium mobilization assay using HEK293 expressing human mGlu5. The class given is cell-based. For orientation: Calcium flux is commonly read through the fluorescence of an indicator in the cells.
Sequence of human mGlu5 (P41594 21-1212): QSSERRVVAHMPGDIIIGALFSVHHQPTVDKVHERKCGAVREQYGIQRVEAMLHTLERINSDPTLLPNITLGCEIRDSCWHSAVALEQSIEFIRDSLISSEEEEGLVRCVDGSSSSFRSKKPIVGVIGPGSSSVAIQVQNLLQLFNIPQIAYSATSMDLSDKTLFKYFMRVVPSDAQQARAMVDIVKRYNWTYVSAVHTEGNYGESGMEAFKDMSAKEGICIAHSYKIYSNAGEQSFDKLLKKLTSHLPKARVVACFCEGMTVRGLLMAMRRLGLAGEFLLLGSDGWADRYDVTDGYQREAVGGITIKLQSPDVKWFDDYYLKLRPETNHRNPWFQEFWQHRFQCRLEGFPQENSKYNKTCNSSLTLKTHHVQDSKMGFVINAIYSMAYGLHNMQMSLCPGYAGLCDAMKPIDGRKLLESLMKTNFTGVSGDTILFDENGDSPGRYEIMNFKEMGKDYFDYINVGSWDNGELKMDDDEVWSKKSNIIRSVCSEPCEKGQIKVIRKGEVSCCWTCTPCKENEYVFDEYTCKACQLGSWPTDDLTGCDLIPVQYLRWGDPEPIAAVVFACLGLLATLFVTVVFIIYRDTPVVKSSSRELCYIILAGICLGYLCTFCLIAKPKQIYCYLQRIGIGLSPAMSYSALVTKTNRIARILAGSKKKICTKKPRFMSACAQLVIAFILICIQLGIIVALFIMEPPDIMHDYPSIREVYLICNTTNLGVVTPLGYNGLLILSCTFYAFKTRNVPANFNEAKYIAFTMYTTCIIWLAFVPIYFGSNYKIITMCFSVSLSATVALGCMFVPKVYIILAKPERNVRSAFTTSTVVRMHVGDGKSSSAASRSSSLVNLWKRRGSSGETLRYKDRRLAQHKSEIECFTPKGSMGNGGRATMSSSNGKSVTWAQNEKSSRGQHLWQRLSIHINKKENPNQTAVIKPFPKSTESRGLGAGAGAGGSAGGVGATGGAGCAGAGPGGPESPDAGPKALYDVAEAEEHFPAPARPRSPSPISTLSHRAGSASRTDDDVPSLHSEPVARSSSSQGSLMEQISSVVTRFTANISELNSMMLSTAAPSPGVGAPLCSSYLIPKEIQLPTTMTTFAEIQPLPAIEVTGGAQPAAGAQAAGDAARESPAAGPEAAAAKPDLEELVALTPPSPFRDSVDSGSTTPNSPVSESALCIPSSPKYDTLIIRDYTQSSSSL
The nature of data set [13]: Predicted hepatic clearance. Format: in vitro ADME. The following applies: human.
Data set [14] relates to mGlu5. Briefly: Leftward fold-shift of a full glutamate concentration-response curve. Format: cell-based. The following applies: human and rat receptors, equal magnitude.
The nature of data set [15]: Predicted hepatic clearance. The class given is in vitro ADME. Conditions: rat.

Sequence of mGlu7 (Q14831 35-915): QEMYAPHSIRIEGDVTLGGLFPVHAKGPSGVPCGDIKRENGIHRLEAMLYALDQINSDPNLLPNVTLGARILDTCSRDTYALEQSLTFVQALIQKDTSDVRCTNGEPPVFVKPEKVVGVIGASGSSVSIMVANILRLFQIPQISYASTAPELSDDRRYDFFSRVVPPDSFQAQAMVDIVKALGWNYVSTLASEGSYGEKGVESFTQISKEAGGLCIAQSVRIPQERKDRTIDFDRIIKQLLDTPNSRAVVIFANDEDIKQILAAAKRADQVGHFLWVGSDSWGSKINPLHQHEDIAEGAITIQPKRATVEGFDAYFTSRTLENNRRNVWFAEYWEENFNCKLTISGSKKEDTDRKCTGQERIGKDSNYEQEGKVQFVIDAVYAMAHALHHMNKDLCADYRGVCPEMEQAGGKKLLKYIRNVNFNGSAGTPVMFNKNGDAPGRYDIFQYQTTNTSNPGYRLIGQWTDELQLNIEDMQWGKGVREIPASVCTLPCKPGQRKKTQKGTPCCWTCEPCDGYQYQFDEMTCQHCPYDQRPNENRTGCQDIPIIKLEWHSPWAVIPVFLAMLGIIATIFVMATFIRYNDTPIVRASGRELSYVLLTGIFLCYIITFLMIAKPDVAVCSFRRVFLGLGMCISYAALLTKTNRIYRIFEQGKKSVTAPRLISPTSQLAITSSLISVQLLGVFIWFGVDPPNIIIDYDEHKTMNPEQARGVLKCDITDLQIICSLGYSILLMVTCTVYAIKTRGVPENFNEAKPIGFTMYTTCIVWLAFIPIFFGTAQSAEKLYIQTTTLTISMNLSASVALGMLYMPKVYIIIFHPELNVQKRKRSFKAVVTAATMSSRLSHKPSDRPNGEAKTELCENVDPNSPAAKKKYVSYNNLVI
Sequence of mGlu4 (Q14833 33-912): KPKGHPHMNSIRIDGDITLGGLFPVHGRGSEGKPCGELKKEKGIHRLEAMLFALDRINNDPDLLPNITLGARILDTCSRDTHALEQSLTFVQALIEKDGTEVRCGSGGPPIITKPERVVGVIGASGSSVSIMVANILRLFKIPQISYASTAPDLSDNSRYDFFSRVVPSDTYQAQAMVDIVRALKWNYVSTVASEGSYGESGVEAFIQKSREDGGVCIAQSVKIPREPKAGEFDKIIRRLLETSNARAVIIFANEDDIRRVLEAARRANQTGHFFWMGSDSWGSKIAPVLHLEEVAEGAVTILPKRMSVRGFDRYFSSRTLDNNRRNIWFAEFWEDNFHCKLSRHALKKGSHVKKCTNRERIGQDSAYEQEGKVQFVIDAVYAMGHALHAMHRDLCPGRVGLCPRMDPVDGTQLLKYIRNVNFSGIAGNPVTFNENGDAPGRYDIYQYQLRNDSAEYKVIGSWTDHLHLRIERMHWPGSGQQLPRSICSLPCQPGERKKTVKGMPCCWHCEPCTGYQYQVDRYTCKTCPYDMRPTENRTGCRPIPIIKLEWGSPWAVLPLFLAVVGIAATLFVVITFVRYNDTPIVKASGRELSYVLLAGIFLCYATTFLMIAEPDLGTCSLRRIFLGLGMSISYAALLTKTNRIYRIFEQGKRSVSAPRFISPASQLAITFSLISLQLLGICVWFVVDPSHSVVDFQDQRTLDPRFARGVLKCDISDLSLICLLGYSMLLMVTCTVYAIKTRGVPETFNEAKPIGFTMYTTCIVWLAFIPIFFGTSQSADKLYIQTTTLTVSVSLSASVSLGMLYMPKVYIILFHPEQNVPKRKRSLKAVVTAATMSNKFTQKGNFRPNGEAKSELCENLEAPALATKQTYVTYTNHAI
Sequence of mGlu2 (Q14416 19-872): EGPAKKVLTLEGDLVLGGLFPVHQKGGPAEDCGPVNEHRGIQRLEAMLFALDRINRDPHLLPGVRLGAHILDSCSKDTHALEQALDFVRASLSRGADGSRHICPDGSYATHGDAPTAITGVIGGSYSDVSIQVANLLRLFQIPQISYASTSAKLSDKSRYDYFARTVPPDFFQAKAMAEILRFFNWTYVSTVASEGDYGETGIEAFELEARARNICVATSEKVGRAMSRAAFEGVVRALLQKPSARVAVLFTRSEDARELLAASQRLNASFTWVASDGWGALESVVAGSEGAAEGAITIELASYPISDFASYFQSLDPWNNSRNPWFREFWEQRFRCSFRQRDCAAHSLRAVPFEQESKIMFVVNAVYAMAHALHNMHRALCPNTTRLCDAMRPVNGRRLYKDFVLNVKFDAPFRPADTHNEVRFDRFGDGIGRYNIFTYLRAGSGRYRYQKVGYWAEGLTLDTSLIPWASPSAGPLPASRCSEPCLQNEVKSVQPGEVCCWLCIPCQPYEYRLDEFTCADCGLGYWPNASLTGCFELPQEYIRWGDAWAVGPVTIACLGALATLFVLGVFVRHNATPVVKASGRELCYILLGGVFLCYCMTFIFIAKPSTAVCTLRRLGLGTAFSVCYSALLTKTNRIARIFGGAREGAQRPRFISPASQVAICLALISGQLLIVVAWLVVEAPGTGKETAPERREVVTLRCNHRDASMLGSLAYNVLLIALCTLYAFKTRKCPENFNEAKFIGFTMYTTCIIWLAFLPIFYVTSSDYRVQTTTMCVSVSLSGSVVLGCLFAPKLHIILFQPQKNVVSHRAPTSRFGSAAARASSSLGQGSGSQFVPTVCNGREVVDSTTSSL

As to `O=C(c1ccc(F)cc1)N1CCc2nc(COc3cccc(F)c3)oc2C1` [4b], the IC50 (commonly the concentration that inhibits the measured activity by half) in data set [1] is greater than 10 µM; in data set [5], greater than 10 µM; in data set [9] it was 0.41 µM. Further, the solubility in [2] (FaSSIF) and in data set [2] (SGF) was 10 µg/mL (≈ 27 µM) in each case. Further, the “solubility, fold lower than 1” value in data set [2] (relative to 1) is reported as 3 ×. Moreover, the “activity versus mGlu8” value in data set [3] was greater than 10 µM. Further, in data set [4], the “activity versus mGlu1” value is greater than 10 µM. Besides, the “activity versus mGlu7” value in [6] was greater than 10 µM. In addition, the “activity versus mGlu4” value in data set [7] was greater than 10 µM. In data set [8], the “activity versus mGlu2” value was greater than 10 µM. Also, in data set [9] (% Glu min), the “mGlu3 Glu min” value is listed as 8%. Moreover, the “minimum effective dose in AHL” value in data set [10] (rat, po) turned out to be 30 mpk. Besides, the “activity versus mGlu6” value in data set [11] is greater than 10 µM.

`O=C(c1cc2ccccc2[nH]1)N1CCc2nc(COc3ccccc3)oc2C1` [11a]: the “mGlu5 PAM activity (in words)” value in data set [12] was “inactive”.

As to `O=C(c1c[nH]c2ccccc12)N1CCc2nc(COc3ccccc3)oc2C1` [11c], the “solubility (in words)” value in data set [2] is on record as “poor solubility”.

Regarding `O=C(c1n[nH]c2ccccc12)N1CCc2nc(COc3ccccc3)oc2C1` [11e], the “solubility (in words)” value in [2] is reported as “poor solubility”.

On to `O=C(c1n[nH]c2ncccc12)N1CCc2nc(COc3ccccc3)oc2C1` [11h], for which, in [13], the “predicted hepatic clearance CLhep” value is 9.1 mL/min/kg. In addition, in data set [14], the fold-shift is on record as 7.3–9.3 x. In addition, in data set [12], the ago-PAM activity entry is given as “modest ago-PAM activity” and the ligand efficiency is recorded as 0.31. Further, the “MED in AHL, fold higher than for 1” value in data set [10] (relative to 1) stood at 3 fold. Moreover, the “predicted hepatic clearance CLhep” value in data set [15] is reported as 36 mL/min/kg.
